From patent US20120164104A1, “Composition and Methods of Treating Viral Infections and Viral Induced Tumors” (Chimerix, Inc., priority 2009, published 2012)
Read-outs that look alike come from different tables or passages of the source.

Columns and labels:
[1] = test system: BK virus; assay: Antiviral activity against BK virus in RPTEC cells (viral DNA by qPCR, 5 days); assay type: cell-based; settings: for EC50: Betapolyomavirus hominis, RPTEC, RPTEC cells
Method: In order to test the activity of CMX001 to inhibit replication of BK virus, stocks of BK virus were prepared in HFF cells and dilutions of the virus stocks were used to infect primary human renal tubular epithelial cells (RPTECs). CMX001 were then added to the wells containing the infected cells and the plates were incubated for 5 days. Total DNA was prepared from the plates and viral DNA was quantified by qPCR.

[2] = test system: JC virus; assay: Antiviral activity against JC virus in COS-7 cells (qPCR, 5 days); assay type: cell-based, JCV(Mad-4)
Method: In order to test the ability of CMX001 to inhibit JC virus, COS-7 cells were infected with JCV(Mad-4) at an estimated TCID50 of 0.2. After 2 h incubation at 37° C., supernatants were replaced with fresh medium without or with increasing amounts of CMX001 and incubated for 5 days. JC virus was quantified by qPCR after DNA extraction.

[3] = test system: BKV(Dunlop); assay: Intracellular BKV load per cell in RPTECs (qPCR); assay type: cell-based; settings: CMX001 0.31 μM
Method: FIG. 3 illustrates the influence of CMX001 0.31 μM on BKV genome replication. For Figure, CMX001-treated and untreated BKV-infected RPTECs were harvested at indicated timepoints and intracellular BKV DNA load per cell was measured by qPCR.
To investigate whether the BKV genome replication was affected by CMX001, intracellular BKV load at 24-72 h p.i. by qPCR was measured. The intracellular BKV load was normalized to the cell number using the aspartoacylase (ACY) gene as described (See Bernhoff et al., 2008; Randhawa, et al., Quantitation of DNA of polyomaviruses BK and JC in human kidneys. J Infect Dis., 192, 504-509 (2005)). Compared to untreated RPTECs, CMX001 0.31 μM reduced the intracellular BKV load by 94% at 48 h and 63% at 72 h p.i. (FIG. 3). Then, a significant inhibitory effect of CMX001 on intracellular BKV genome replication, which is the second step of the BKV lifecycle may be identified. This step is known to require LTag expression which also increases viral late gene expression by two mechanisms: 1. increasing the DNA templates for late gene transcription and 2. by activating transcription from the late promoter (Cole, C. N., Polyomavirinae: The Viruses and Their Replication. In Fields Virology, Third edn, pp. 1997-2043. Edited by B. N. Fields, D. M. Knipe & P. H. Howley. New York: Lippincott-Raven (1996).)

[4] = test system: PC-3; assay: Cell proliferation assay (MTS or SRB), PC-3; assay type: cell-based; settings: Homo sapiens, 72 h; PC-3, Prostate, 3 days; read-out: IC50 (cell growth inhibition)
Method: (§1) In vitro cell proliferation assays were performed using a 96-well plate based MTSassay (CellTiter 96° AqueousOne Solution Cell Proliferation Assay, Promega) or SRB (Sulforhodamine-B) assay (1-3). Briefly, cells were plated in 100 μl medium on day 0 in 96-well microtiter plates (Falcon #3072). On day 1, 10 μl of serial dilutions of each compound (Nine 1:2 dilutions with a starting concentration of 100 μM; in some cases, a starting concentration of 400 μM (CMX001 or Cidofovir) or 1 μM (some standard agents)) were added in triplicates to the plates. For standard agents using DMSO as solvent, serial dilutions of DMSO with a starting concentration of 0.5% were also included as a vehicle control.
(§2) After incubation for 3 days at 37° C. in a humidified incubator, viable cells were measured either by MTS or SRB assay. For MTS assay, 20 μl of a 20:1 mixture of (3-(4,5-dimethylthiazol-2-yl)-5-(3-carboxymethoxyphenyl)-2-(4-sulfophenyl)-2H-tetrazolium, inner salt (MTS, 2 mg/ml) and an electron coupling reagent, phenazine methosulfate (PMS, 0.92 mg/ml in DPBS), was added to each well and incubated for 3 hours at 37° C. Absorbance was measured using a BioTek Synergy™ HT Multiple Detection microplate reader at 490 nm. For SRB assay, cells were fixed in situ with 50 μL of cold trichloroacetic acid (TCA, final concentration at 10% w/v) for 60 minutes. Cells were then washed 5 times with H2O and air-dried.
(§3) Next, cells were stained with 20 μL of 0.2% SRB in 1% acetic acid and incubated at room temperature for 30 minutes and unbound SRB was removed by washing 5 times with 1% acetic acid and air-dried. Finally, bound SRB stain was solubilized in 50 μL of 50 μM Tris buffer before taking an optical density measurement at 570 nm using the BioTek microplate reader. The growth inhibition data were expressed as the percentage of cell survival calculated from the background corrected absorbance. The surviving fraction of cells was determined by dividing the mean absorbance values of the test agent-treated samples by the mean absorbance values of untreated control. […]

[5] = test system: OVCAR-3; assay: Cell proliferation assay (MTS or SRB), OVCAR-3; assay type: cell-based, human; settings: Homo sapiens, 72 h; OVCAR-3, Ovarian, 3 days; read-out: IC50 (cell growth inhibition)
Method: as §1, §2, §3

[6] = test system: SK-HEP-1; assay: Cell proliferation assay (MTS or SRB), SK-HEP-1; assay type: cell-based; settings: Homo sapiens, SK-HEP1, 72 h; SK-HEP-1, Liver, 3 days; read-out: IC50 (cell growth inhibition)
Method: as §1, §2, §3

[7] = test system: Het-1A; assay: Cell proliferation assay (MTS or SRB), Het-1A; assay type: cell-based; settings: Homo sapiens, 72 h, Esophagus (Normal), SV40 large T immortalized, 3 days, read-out: IC50 (cell growth inhibition)
Method: as §1
After incubation for 3 days at 37° C. in a humidified incubator, viable cells were measured either by MTS or SRB assay. […]
as §3, with “absorbance.” for “absorbance. The surviving fraction of cells was determined by dividing the mean absorbance values of the test agent-treated samples by the mean absorbance values of untreated control.”

[8] = test system: tumor cell lines; assay: Cell proliferation assay (MTS or SRB), panel of human tumor cell lines; assay type: cell-based; settings: 22 tumor cell lines, read-out: IC50 values in the tumor cell lines (range over panel)
Method: The cell growth inhibitory activities of CMX001, Cidofovir, and a standard agent (varies depending on the tumor type of the cell lines) were evaluated in a panel of cell lines derived from multiple tumor types using a MTS or SRB based cell proliferation assay.
In vitro cell proliferation assays were performed using a 96-well plate based MTSassay (CellTiter 96° AqueousOne Solution Cell Proliferation Assay, Promega) or SRB (Sulforhodamine-B) assay (1-3). Briefly, cells were plated in 100 μl medium on day 0 in 96-well microtiter plates (Falcon #3072). […]
as §2, with “air-dried. […]” for “air-dried.”
Raw data were acquired using a BioTek Synergy™ HT Multiple Detection microplate reader and imported into Microsoft Excel for analysis. […]

[9] = JC polyomavirus, 120 h, JCV(Mad-4), 5 days

CCCCCCCCCCCCCCCCOCCCOP(=O)(O)CO[C@H](CO)Cn1ccc(N)nc1=O [CMX001]
EC50 ([1]; virus dilution 1:10): 16 nM | EC50 ([1]; virus dilution 1:50): 3.5 nM | EC50 ([1]; virus dilution 1:100): 3.7 nM | activity against BK virus replication ([1]; RPTECs, in words): good activity | EC50 [2, 9]: 150 nM | EC90 [2, 9]: 600 nM | activity against JC virus ([2]; in words): active | reduction of intracellular BKV load ([3]; 48 h p.i.): 94% | reduction of intracellular BKV load ([3]; 72 h p.i.): 63% | IC50 [4]: 6600 nM | IC50 [5]: 73300 nM | IC50 [6]: 7400 nM | IC50 [7]: 20500 nM | IC50 [8]: 6600 to 100000 nM

Nc1ccn(C[C@@H](CO)OCP(=O)(O)O)c(=O)n1 [cidofovir]
EC50 ([1]; virus dilution 1:10, read-out: EC50): 2000 nM | EC50 ([1]; virus dilution 1:50, read-out: EC50): 650 nM | EC50 ([1]; virus dilution 1:100, read-out: EC50): 440 nM | IC50 [4]: > 100000 nM | IC50 [5]: > 100000 nM | IC50 [6]: > 100000 nM | IC50 [7]: > 100000 nM
